Experimental findings from US11753397B2, “Cereblon binders for the degradation of ikaros” (C4 Therapeutics, Inc., priority 2018, dated 2023) are described below.

Broadly, the GI50 is the concentration giving 50% growth inhibition. Lower therefore signals more potent growth inhibition.

The assay deals with NCIH929.1 cells. In words: Cell viability assay (CellTiter-Glo 2.0, ATP quantification). It counts as cell-based. Particulars: NCIH929.1 cell viability, CellTiter-Glo 2.0, 96 hr incubation, top concentration 1 μM. As to the method:
Example 59. Cell Viability Assay
RPMI 1640 medium, fetal bovine serum (FBS) and 2-mercaptoethanol were purchased from Gibco (Grand Island, N.Y., USA). CellTiter-Glo® 2.0 Assay was purchased from Promega (Madison, Wis., USA). NCIH929.1 cell line was purchased from ATCC (Manassas, Va., USA). Cell culture flasks and 384-well microplates were acquired from VWR (Radnor, Pa., USA).
NCIH929.1 cell viability was determined based on quantification of ATP using CellTiter-Glo® 2.0 luminescent Assay kit, which signals the presence of metabolically-active cells. Briefly, the test compound was added to 384-well plates at a top concentration of 1 μM with 10 points, half log titration in duplicates. NCIH929.1 cells were seeded into the 384-well plates in RPMI medium containing 10% FBS and 0.05 mM 2-mercaptoethanol at a cell density of 750 cells per well. Cells treated in the absence of the test compound were the negative control and cells treated in the absence of CellTiter-Glo® 2.0 were the positive control. At the same day of compound treatment, CellTiter-Glo® 2.0 was added to a plate with cells treated in the absence of the test compound to establish Cytostatic control value (CT0). Cells treated with the test compound were incubated at 37° C. with 5% CO2 for 96 hr. CellTiter-Glo reagent was then added to the cells and luminescence was acquired on EnVision™ Multilabel Reader (PerkinElmer, Santa Clara, Calif., USA).
(Cellular ATP, detected with luciferase, serves as a proxy for viable cell number.)
As for `O=C1CCC(N2C(=O)c3cccc(NCc4cnn(C5CCN(C(=O)C67C8C9C%10C8C6C%10C97)CC5)c4)c3C2=O)C(=O)N1` [Compound 95, 4-(((1-(1-((1s,4R,3R,4r,5r,6S,7S,8s)-cubane-1-carbonyl)piperidin-4-yl)-1H-pyrazol-4-yl)methyl)amino)-2-(2,6-dioxopiperidin-3-yl)isoindoline-1,3-dione], the GI50 was < 0.001 µM.

Take `CCOCC(=O)N1CCC(n2cc(CNc3cccc4c3C(=O)N(C3CCC(=O)NC3=O)C4=O)cn2)CC1` (stereo not shown) [Compound 17, 2-(2,6-dioxopiperidin-3-yl)-4-(((1-(1-(2-ethoxyacetyl)piperidin-4-yl)-1H-pyrazol-4-yl)methyl)amino)isoindoline-1,3-dione]: the concentration for 50% growth inhibition (GI50) was < 0.1 µM.

Consider `CC(C)(C)OC(=O)N1CC2(CC(n3cc(CNc4cccc5c4C(=O)N(C4CCC(=O)NC4=O)C5=O)cn3)C2)C1` (stereo not shown) [Compound 167, tert-Butyl 6-(4-(((2-(2,6-dioxopiperidin-3-yl)-1,3-dioxoisoindolin-4-yl)amino)methyl)-1H-pyrazol-1-yl)-2-azaspiro[3.3]heptane-2-carboxylate], for which the GI50 is < 0.1 µM.

For `O=C1CCC(N2C(=O)c3cccc(NCc4cnn(C5CCN(C(=O)CC6CCN(C(=O)C7CCC7)CC6)CC5)c4)c3C2=O)C(=O)N1` (stereo not shown) [Compound 126, 4-(((1-(1-(2-(1-(cyclobutanecarbonyl)piperidin-4-yl)acetyl)piperidin-4-yl)-1H-pyrazol-4-yl)methyl)amino)-2-(2,6-dioxopiperidin-3-yl)isoindoline-1,3-dione], the GI50 was < 0.1 µM.

In the case of `CC(C)(O)CC(=O)N1CCC(n2cc(CNc3cccc4c3C(=O)N(C3CCC(=O)NC3=O)C4=O)cn2)CC1` (stereo not shown) [Compound 46, 2-(2,6-dioxopiperidin-3-yl)-4-(((1-(1-(3-hydroxy-3-methylbutanoyl)piperidin-4-yl)-1H-pyrazol-4-yl)methyl)amino)isoindoline-1,3-dione], the GI50 was < 0.1 µM.

With `O=C1CCC(N2C(=O)c3cccc(NCc4cnn(C5CCN(C(=O)C6(F)CCC6)CC5)c4)c3C2=O)C(=O)N1` (stereo not shown) [Compound 79, 2-(2,6-dioxopiperidin-3-yl)-4-(((1-(1-(1-fluorocyclobutane-1-carbonyl)piperidin-4-yl)-1H-pyrazol-4-yl)methyl)amino)isoindoline-1,3-dione], the GI50 was < 0.1 µM.

Consider `CC1(C(=O)N2CCC(n3cc(CNc4cccc5c4C(=O)N(C4CCC(=O)NC4=O)C5=O)cn3)CC2)CCCCC1` (stereo not shown) [Compound 63, 2-(2,6-dioxopiperidin-3-yl)-4-(((1-(1-(1-methylcyclohexane-1-carbonyl)piperidin-4-yl)-1H-pyrazol-4-yl)methyl)amino)isoindoline-1,3-dione], for which the 50% growth inhibitory concentration (GI50) is < 0.001 µM.

For `CC1CC1C(=O)N1CCC(n2cc(CNc3cccc4c3C(=O)N(C3CCC(=O)NC3=O)C4=O)cn2)CC1` (stereo not shown) [Compound 45, 2-(2,6-dioxopiperidin-3-yl)-4-(((1-(1-(2-methylcyclopropane-1-carbonyl)piperidin-4-yl)-1H-pyrazol-4-yl)methyl)amino)isondoline-1,3-dione], the GI50 was < 0.1 µM.

As for `O=C1CCC(N2C(=O)c3cccc(NCc4cnn(C5CC5)c4)c3C2=O)C(=O)N1` (stereo not shown) [Compound 163, 4-[(1-Cyclopropyl-1H-pyrazol-4-ylmethyl)-amino]-2-(2,6-dioxo-piperidin-3-yl)-isoindole-1,3-dione], the GI50 was < 0.1 µM.

In the case of `CCOC(=O)N1CCC(n2cc(CNc3cccc4c3C(=O)N(C3CCC(=O)NC3=O)C4=O)cn2)CC1` (stereo not shown) [Compound 147, ethyl 4-(4-(((2-(2,6-dioxopiperidin-3-yl)-1,3-dioxoisoindolin-4-yl)amino)methyl)-1H-pyrazol-1-yl)piperidine-1-carboxylate], the concentration for 50% growth inhibition (GI50) is < 0.1 µM.

Turning to `CC1(C)C[C@@H](n2cc(CNc3cccc4c3C(=O)N(C3CCC(=O)NC3=O)C4=O)cn2)CCN1C(=O)C12C3C4C5C3C1C5C42` (stereo partly drawn) [Compound 197, 4-[[1-[(4S)-1-(Cubane-1-carbonyl)-2,2-dimethyl-4-piperidyl]pyrazol-4-yl]methylamino]-2-(2,6-dioxo-3-piperidyl)isoindoline-1,3-dione], the GI50 is < 0.1 µM.

On to `CC(=O)N1CCC(n2cc(CNc3cccc4c3C(=O)N(C3CCC(=O)NC3=O)C4=O)cn2)CC1` (stereo not shown) [Compound 159, 4-[[1-(1-acetyl-4-piperidyl)pyrazol-4-yl]methylamino]-2-(2,6-dioxo-3-piperidyl)isoindoline-1,3-dione], for which the GI50 is < 0.1 µM.

On to `CC1(C(=O)N2CCC(n3ncc(CNc4cccc5c4C(=O)N(C4CCC(=O)NC4=O)C5=O)c3C#N)CC2)CCC1` (stereo not shown) [Compound 194, 4-(((2-(2,6-Dioxopiperidin-3-yl)-1,3-dioxoisoindolin-4-yl)amino)methyl)-1-(1-(1-methylcyclobutane-1-carbonyl)piperidin-4-yl)-1H-pyrazole-5-carbonitrile], for which the GI50 is < 0.1 µM.

As for `C[C@@H](C(=O)N1CCC(n2cc(CNc3cccc4c3C(=O)N(C3CCC(=O)NC3=O)C4=O)cn2)CC1)c1ccccc1` (stereo partly drawn) [Compound 48, 2-(2,6-dioxopiperidin-3-yl)-4-(((1-(1-((R)-2-phenylpropanoyl)piperidin-4-yl)-1H-pyrazol-4-yl)methyl)amino)isoindoline-1,3-dione], the GI50 is < 0.1 µM.

As to `O=C1CCC(N2C(=O)c3cccc(NCc4cnn(C5CCN(C(=O)C6(C(F)(F)F)CC6)CC5)c4)c3C2=O)C(=O)N1` (stereo not shown) [Compound 60, 2-(2,6-dioxopiperidin-3-yl)-4-(((1-(1-(1-(trifluoromethyl)cyclopropane-1-carbonyl)piperidin-4-yl)-1H-pyrazol-4-yl)methyl)amino)isoindoline-1,3-dione], the concentration for 50% growth inhibition (GI50) was < 0.1 µM.

Consider `C[C@H](C(=O)N1CCC(n2cc(CNc3cccc4c3C(=O)N(C3CCC(=O)NC3=O)C4=O)cn2)CC1)c1ccccc1` (stereo partly drawn) [Compound 51, 2-(2,6-dioxopiperidin-3-yl)-4-(((1-(1-((S)-2-phenylpropanoyl)piperidin-4-yl)-1H-pyrazol-4-yl)methyl)amino)isoindoline-1,3-dione], for which the GI50 is < 0.1 µM.

Turning to `O=C1CCC(N2C(=O)c3cccc(NCc4cnn(C5CCN(C(=O)C6(C(F)(F)F)CCC6)CC5)c4)c3C2=O)C(=O)N1` (stereo not shown) [Compound 75, 2-(2,6-dioxopiperidin-3-yl)-4-(((1-(1-(1-(trifluoromethyl)cyclobutane-1-carbonyl)piperidin-4-yl)-1H-pyrazol-4-yl)methyl)amino)isoindoline-1,3-dione], the GI50 was < 0.001 µM.

As to `CC1(C(=O)N2CCC(n3cc(CNc4cccc5c4C(=O)N(C4CCC(=O)NC4=O)C5=O)cn3)CC2)CCOCC1` (stereo not shown) [Compound 64, 2-(2,6-dioxopiperidin-3-yl)-4-(((1-(1-(4-methyltetrahydro-2H-pyran-4-carbonyl)piperidin-4-yl)-1H-pyrazol-4-yl)methyl)amino)isoindoline-1,3-dione], the GI50 was < 0.1 µM.

In the case of `O=C1CCC(N2C(=O)c3cccc(NCc4cnn(C5CCN(C(=O)c6cccc(C#Cc7ccccc7)c6)CC5)c4)c3C2=O)C(=O)N1` (stereo not shown) [Compound 108, 2-(2,6-dioxopiperidin-3-yl)-4-(((1-(1-(3-(phenylethynyl)benzoyl)piperidin-4-yl)-1H-pyrazol-4-yl)methyl)amino)isoindoline-1,3-dione], the GI50 was < 0.1 µM.

Regarding `CC(=O)N1C2CCC1CC(n1cc(CNc3cccc4c3C(=O)N(C3CCC(=O)NC3=O)C4=O)cn1)C2` (stereo not shown) [Compound 156, 4-[[1-(8-acetyl-8-azabicyclo[3.2.1]octan-3-yl)pyrazol-4-yl]methylamino]-2-(2,6-dioxo-3-piperidyl)isoindoline-1,3-dione], the GI50 is < 0.1 µM.

Take `O=C1CCC(N2C(=O)c3cccc(NCc4cnn(C5CCN(CC6CCCC6)CC5)c4)c3C2=O)C(=O)N1` (stereo not shown) [Compound 128, 4-(((1-(1-(cyclopentylmethyl)piperidin-4-yl)-1H-pyrazol-4 yl)methyl)amino)-2-(2,6-dioxopiperidin-3-yl)isoindoline-1,3-dione]: the concentration for 50% growth inhibition (GI50) was < 0.1 µM.

For the compound `O=C1CCC(N2C(=O)c3cccc(NCc4cnn(C5CN(c6ccccc6)C5)c4)c3C2=O)C(=O)N1` (stereo not shown) [Compound 181, 2-(2,6-Dioxo-piperidin-3-yl)-4-{[1-(1-phenyl-azetidin-3-yl)-1H-pyrazol-4-ylmethyl]-amino}-isoindole-1,3-Dione], the GI50 was < 0.1 µM.

As for `CC(C)(C)CC(=O)N1CCC(n2cc(CNc3cccc4c3C(=O)N(C3CCC(=O)NC3=O)C4=O)cn2)CC1` (stereo not shown) [Compound 12, 4-(((1-(1-(3,3-dimethylbutanoyl)piperidin-4-yl)-1H-pyrazol-4-yl)methyl)amino)-2-(2,6-dioxopiperidin-3-yl)isoindoline-1,3-dione], the concentration for 50% growth inhibition (GI50) was < 0.1 µM.

`O=C1CCC(N2C(=O)c3cccc(NCc4cnn(C5CCCCC5)c4)c3C2=O)C(=O)N1` (stereo not shown) [Compound 158, 4-[(1-cyclohexylpyrazol-4-yl)methylamino]-2-(2,6-dioxo-3-piperidyl)isoindoline-1,3-dione]: the concentration for 50% growth inhibition (GI50) is < 0.1 µM.

Consider `CC(C)(C)NC(=O)N1CCC(n2cc(CNc3cccc4c3C(=O)N(C3CCC(=O)NC3=O)C4=O)cn2)CC1` (stereo not shown) [Compound 161, 4-(4-{[2-(2,6-Dioxo-piperidin-3-yl)-1,3-dioxo-2,3-dihydro-1H-isoindol-4-ylamino]-methyl}-pyrazol-1-yl)-piperidine-1-carboxylic acid tert-butylamide], for which the GI50 was < 0.1 µM.
